Values joined by “and” are separate entries in the source; they are usually repeats but may differ in a detail not shown here. Equal values may be shown once. Read-outs that look alike come from different tables or passages of the source.
Experiments:
influenza virus [1] = format: in vivo, human
[2] = format: in vivo, human; settings: Compound II-6 single 40 or 80 mg; Oseltamivir 75 mg twice a day for 5 days
From the text: (4) Incidence of side effects
(4) Incidence of Side Effects
The number of side-effect episodes and the number of patients with side effect were counted for each administration group.

influenza virus [3] = experiment: Clinical test (Test Example 15): time to alleviation of influenza symptoms; settings: for Time to alleviation of influenza symptoms, difference from placebo / Time to alleviation of influenza symptoms, hazard ratio (Cox proportional hazard model relative to placebo) / Time to alleviation of influenza symptoms, median value: ITTI; for Time to alleviation of influenza symptoms, median value: influenza patients 20 to <65 years old; for Time until cough symptom is alleviated, median value / Time until fatigue symptom is alleviated, median value / Time until feverishness or chills symptom is alleviated, median value / Time until headache symptom is alleviated, median value / Time until muscular or joint pain symptom is alleviated, median value / Time until nasal congestion symptom is alleviated, median value / Time until sore throat symptom is alleviated, median value: patients with symptom moderate or severe at baseline
From the text: Test Example 15: Clinical Test
As for the primary endpoint, subjects made evaluations by themselves on a 4-point scale [0: none, 1: mild, 2: moderate, 3: severe] concerning the time to alleviation of influenza symptoms (the time from the beginning of administration of the investigational drug until 7 influenza symptoms (“cough”, “sore throat”, “headache”, “nasal congestion”, “feverishness or chills”, “muscular or joint pain”, and “fatigue”) were alleviated) to evaluate the efficacy of the investigational drug over the placebo.
Patients who satisfied all of the following criteria were selected as subjects.
(a) Male or female patients at 20 years old or older and younger than 65 years old
(b) Patients satisfying all of the following criteria and diagnosed with influenza virus infectious disease
The main efficacy endpoint is the time to alleviation of influenza symptoms (the time to alleviation of influenza symptoms).
It is the time from the beginning of administration until alleviation of influenza symptoms. Alleviation of influenza symptoms refers to when all 7 influenza symptoms (cough, sore throat, headache, nasal congestion, feverishness or chills, muscular or joint pain, fatigue) become “0: none” or “1: mild” in the patient diary that the subject keeps, and this condition continues at least 21.5 hours (24 hours—10%).
Secondary Efficacy Endpoint
The secondary efficacy endpoint is as follows.
(1) Time to Alleviation of Each Influenza Symptom
It is the time from the beginning of administration until alleviation of each influenza symptom. Alleviation of a symptom refers to when the target item becomes “0: none” or “1: mild”, and this condition continues at least 21.5 hours (24 hours—10%).
Analysis of Primary Endpoint
As for the time to alleviation of influenza symptoms, which is the primary endpoint, the primary analysis and the secondary analysis are described. In addition to the ITTI group, the primary analysis was also performed on the PPS group for sensitivity analysis. Other analyses were performed only on the ITTI group.
The hazard ratio, 95% confidence interval, and P value of each administered group relative to the placebo group were calculated by a Cox proportional hazard model using the time to alleviation of influenza symptoms as a response, the administered groups as fixed effects, and the current smoking habit and the total score of 7 influenza symptoms at baseline before administration, which are allocation factors, as covariates. In order to prevent an increase of the probability of type I error due to performing the test multiple times, the P value was adjuste d by the Hommel's method.
The placebo group and each investigational drug administered group were compared by stratified generalized Wilcoxon test using the time to alleviation of influenza symptoms as a response, the administered groups as explanatory variables, and the category (11 points or less, 12 points or more) of the total score of 7 influenza symptoms before administration and the smoking habit, which are allocation factors, as stratification factors.
Also, a Kaplan-Meier survival curve was drawn for each group to calculate the median time to alleviation of influenza symptoms and the 95% confidence interval thereof. The Greenwood's method was used for calculating the confidence interval.
Analysis of Secondary Endpoint
(1) Time Until Each Alleviation of Influenza Symptom
The same analysis as in the primary endpoint was performed, with the time until each alleviation of influenza symptom being regarded as a response. At this time, cases where the symptom before administration was “0: none” or “1: mild” were excluded from the analysis target.

[4] = format: in vivo; settings: after oral administration of Compound II-6 to rat under non-fasting conditions
From the text: FIG. 1 is a result of measuring the plasma concentration of Compound III-2, after oral administration of prodrug Compound II-6, the parent compound of which is Compound III-2, to rat under non-fasting conditions.
FIG. 2 is a result of measuring the plasma concentration of Compound II-6, after oral administration of prodrug Compound II-6, the parent compound of which is Compound III-2, to rat under non-fasting conditions.
Test Example 13: Transition of Plasma Concentration
The plasma concentration of Compound III-2 and Compound II-6 after oral administration of prodrug Compound II-6, the parent compound of which was Compound III-2, to rat under non-fasting conditions was measured.

[5] = Day 2 (24 hours later), 12 to <65 years old
[6] = Day 2 (24 hours later), 20 to <65 years old
[7] = Day 3 (48 hours later), 12 to <65 years old
[8] = Day 3 (48 hours later), 20 to <65 years old
[9] = Day 4 (72 hours later), 12 to <65 years old
[10] = Day 4 (72 hours later), 20 to <65 years old
[11] = Day 5 (96 hours later), 12 to <65 years old
[12] = Day 5 (96 hours later), 20 to <65 years old
[13] = Day 6 (120 hours later), 12 to <65 years old
[14] = Day 6 (120 hours later), 20 to <65 years old
[15] = Day 9 (192 hours later), 12 to <65 years old
[16] = Day 9 (192 hours later), 20 to <65 years old

COC(=O)OCOc1c2n(ccc1=O)N([C@@H]1c3ccccc3SCc3c1ccc(F)c3F)[C@@H]1COCCN1C2=O [II-6]
Time (median) to termination of viral shedding based on virus titer (influenza virus [1]; 12 to <65 years old): 24.0 h | Time to termination of viral shedding, difference between groups vs placebo (influenza virus [1]; 12 to <65 years old): -72.0 h | Time to termination of viral shedding, difference between groups vs Oseltamivir (influenza virus [1]; 20 to <65 years old): -48.0 h | Amount of change in virus titer from baseline, mean (influenza virus [1]; [5]): −4.44 log10 [TCID50/mL] | Proportion of patients having a positive influenza virus titer (influenza virus [1]; [5]): 47.8% | Amount of change in virus titer from baseline, mean (influenza virus [1]; [6]): −4.39 log10 [TCID50/mL] | Proportion of patients having a positive influenza virus titer (influenza virus [1]; [6]): 47.6% | Amount of change in virus titer from baseline, mean (influenza virus [1]; [7]): −4.82 log10 [TCID50/mL] | Proportion of patients having a positive influenza virus titer (influenza virus [1]; [7]): 21.5% | Amount of change in virus titer from baseline, mean (influenza virus [1]; [8]): −4.78 log10 [TCID50/mL] | Proportion of patients having a positive influenza virus titer (influenza virus [1]; [8]): 19.8% | Amount of change in virus titer from baseline, mean (influenza virus [1]; [9]): −4.50 log10 [TCID50/mL] | Proportion of patients having a positive influenza virus titer (influenza virus [1]; [9]): 16.7% | Amount of change in virus titer from baseline, mean (influenza virus [1]; [10]): −4.46 log10 [TCID50/mL] | Proportion of patients having a positive influenza virus titer (influenza virus [1]; [10]): 16.1% | Amount of change in virus titer from baseline, mean (influenza virus [1]; [11]): −4.95 log10 [TCID50/mL] | Proportion of patients having a positive influenza virus titer (influenza virus [1]; [11]): 13.6% | Amount of change in virus titer from baseline, mean (influenza virus [1]; [12]): −4.95 log10 [TCID50/mL] | Proportion of patients having a positive influenza virus titer (influenza virus [1]; [12]): 13.0% | Amount of change in virus titer from baseline, mean (influenza virus [1]; [13]): −4.58 log10 [TCID50/mL] | Proportion of patients having a positive influenza virus titer (influenza virus [1]; [13]): 8.2% | Amount of change in virus titer from baseline, mean (influenza virus [1]; [14]): −4.56 log10 [TCID50/mL] | Proportion of patients having a positive influenza virus titer (influenza virus [1]; [14]): 5.6% | Amount of change in virus titer from baseline, mean (influenza virus [1]; [15]): −5.06 log10 [TCID50/mL] | Proportion of patients having a positive influenza virus titer (influenza virus [1]; [15]): 2.9% | Amount of change in virus titer from baseline, mean (influenza virus [1]; [16]): −5.03 log10 [TCID50/mL] | Proportion of patients having a positive influenza virus titer (influenza virus [1]; [16]): 3.0% | Incidence of adverse events the causal relationship of which cannot be denied (patients) [2]: 4.4% | Time until cough symptom is alleviated, difference from placebo (influenza virus [3]; single oral 10 mg): -0.1 h | Time until cough symptom is alleviated, hazard ratio (Cox model relative to placebo) (influenza virus [3]; single oral 10 mg): 0.941 | Time until fatigue symptom is alleviated, difference from placebo (influenza virus [3]; single oral 10 mg): -10.7 h | Time until fatigue symptom is alleviated, hazard ratio (Cox model relative to placebo) (influenza virus [3]; single oral 10 mg): 0.783 | Time until feverishness or chills symptom is alleviated, difference from placebo (influenza virus [3]; single oral 10 mg): -4.1 h | Time until feverishness or chills symptom is alleviated, hazard ratio (Cox model relative to placebo) (influenza virus [3]; single oral 10 mg): 0.635 | Time until headache symptom is alleviated, difference from placebo (influenza virus [3]; single oral 10 mg): -1.5 h | Time until headache symptom is alleviated, hazard ratio (Cox model relative to placebo) (influenza virus [3]; single oral 10 mg): 0.803 | Time until muscular or joint pain symptom is alleviated, difference from placebo (influenza virus [3]; single oral 10 mg): -10.7 h | Time until muscular or joint pain symptom is alleviated, hazard ratio (Cox model relative to placebo) (influenza virus [3]; single oral 10 mg): 0.77 | Time until nasal congestion symptom is alleviated, difference from placebo (influenza virus [3]; single oral 10 mg): -17.6 h | Time until nasal congestion symptom is alleviated, hazard ratio (Cox model relative to placebo) (influenza virus [3]; single oral 10 mg): 0.742 | Time until sore throat symptom is alleviated, difference from placebo (influenza virus [3]; single oral 10 mg): 9.1 h | Time until sore throat symptom is alleviated, hazard ratio (Cox model relative to placebo) (influenza virus [3]; single oral 10 mg): 1.312 | Time to alleviation of influenza symptoms, difference from placebo (influenza virus [3]; single oral 10 mg): -23.4 h | Time to alleviation of influenza symptoms, hazard ratio (Cox proportional hazard model relative to placebo) (influenza virus [3]; single oral 10 mg): 0.758 | Time to alleviation of influenza symptoms, median value (influenza virus [3]; single oral 10 mg): 54.2 h | Time until cough symptom is alleviated, median value (influenza virus [3]; single oral 10 mg): 31.1 h | Time until fatigue symptom is alleviated, median value (influenza virus [3]; single oral 10 mg): 32 h | Time until feverishness or chills symptom is alleviated, median value (influenza virus [3]; single oral 10 mg): 24.7 h | Time until headache symptom is alleviated, median value (influenza virus [3]; single oral 10 mg): 42.2 h | Time until muscular or joint pain symptom is alleviated, median value (influenza virus [3]; single oral 10 mg): 31.2 h | Time until nasal congestion symptom is alleviated, median value (influenza virus [3]; single oral 10 mg): 25.2 h | Time until sore throat symptom is alleviated, median value (influenza virus [3]; single oral 10 mg): 35.3 h | Time until cough symptom is alleviated, difference from placebo (influenza virus [3]; single oral 20 mg): -1.4 h | Time until cough symptom is alleviated, hazard ratio (Cox model relative to placebo) (influenza virus [3]; single oral 20 mg): 0.883 | Time until fatigue symptom is alleviated, difference from placebo (influenza virus [3]; single oral 20 mg): -11.5 h | Time until fatigue symptom is alleviated, hazard ratio (Cox model relative to placebo) (influenza virus [3]; single oral 20 mg): 0.876 | Time until feverishness or chills symptom is alleviated, difference from placebo (influenza virus [3]; single oral 20 mg): 0.6 h | Time until feverishness or chills symptom is alleviated, hazard ratio (Cox model relative to placebo) (influenza virus [3]; single oral 20 mg): 0.848 | Time until headache symptom is alleviated, difference from placebo (influenza virus [3]; single oral 20 mg): -6.7 h | Time until headache symptom is alleviated, hazard ratio (Cox model relative to placebo) (influenza virus [3]; single oral 20 mg): 0.936 | Time until muscular or joint pain symptom is alleviated, difference from placebo (influenza virus [3]; single oral 20 mg): -12 h | Time until muscular or joint pain symptom is alleviated, hazard ratio (Cox model relative to placebo) (influenza virus [3]; single oral 20 mg): 0.687 | Time until nasal congestion symptom is alleviated, difference from placebo (influenza virus [3]; single oral 20 mg): -21.3 h | Time until nasal congestion symptom is alleviated, hazard ratio (Cox model relative to placebo) (influenza virus [3]; single oral 20 mg): 0.59 | Time until sore throat symptom is alleviated, difference from placebo (influenza virus [3]; single oral 20 mg): 1.5 h | Time until sore throat symptom is alleviated, hazard ratio (Cox model relative to placebo) (influenza virus [3]; single oral 20 mg): 1.05 | Time to alleviation of influenza symptoms, difference from placebo (influenza virus [3]; single oral 20 mg): -26.6 h | Time to alleviation of influenza symptoms, hazard ratio (Cox proportional hazard model relative to placebo) (influenza virus [3]; single oral 20 mg): 0.81 | Time to alleviation of influenza symptoms, median value (influenza virus [3]; single oral 20 mg): 51.0 h and 51 h | Time until cough symptom is alleviated, median value (influenza virus [3]; single oral 20 mg): 29.8 h | Time until fatigue symptom is alleviated, median value (influenza virus [3]; single oral 20 mg): 31.3 h | Time until feverishness or chills symptom is alleviated, median value (influenza virus [3]; single oral 20 mg): 29.4 h | Time until headache symptom is alleviated, median value (influenza virus [3]; single oral 20 mg): 37 h | Time until muscular or joint pain symptom is alleviated, median value (influenza virus [3]; single oral 20 mg): 29.9 h | Time until nasal congestion symptom is alleviated, median value (influenza virus [3]; single oral 20 mg): 21.6 h | Time until sore throat symptom is alleviated, median value (influenza virus [3]; single oral 20 mg): 27.8 h | Time until cough symptom is alleviated, difference from placebo (influenza virus [3]; single oral 40 mg): -6.6 h | Time until cough symptom is alleviated, hazard ratio (Cox model relative to placebo) (influenza virus [3]; single oral 40 mg): 0.865 | Time until fatigue symptom is alleviated, difference from placebo (influenza virus [3]; single oral 40 mg): -11.7 h | Time until fatigue symptom is alleviated, hazard ratio (Cox model relative to placebo) (influenza virus [3]; single oral 40 mg): 0.724 | Time until feverishness or chills symptom is alleviated, difference from placebo (influenza virus [3]; single oral 40 mg): -5.8 h | Time until feverishness or chills symptom is alleviated, hazard ratio (Cox model relative to placebo) (influenza virus [3]; single oral 40 mg): 0.71 | Time until headache symptom is alleviated, difference from placebo (influenza virus [3]; single oral 40 mg): -5.8 h | Time until headache symptom is alleviated, hazard ratio (Cox model relative to placebo) (influenza virus [3]; single oral 40 mg): 0.655 | Time until muscular or joint pain symptom is alleviated, hazard ratio (Cox model relative to placebo) (influenza virus [3]; single oral 40 mg): 0.657 | Time until nasal congestion symptom is alleviated, hazard ratio (Cox model relative to placebo) (influenza virus [3]; single oral 40 mg): 0.564 | Time until sore throat symptom is alleviated, difference from placebo (influenza virus [3]; single oral 40 mg): 5.6 h | Time until sore throat symptom is alleviated, hazard ratio (Cox model relative to placebo) (influenza virus [3]; single oral 40 mg): 1.092 | Time to alleviation of influenza symptoms, difference from placebo (influenza virus [3]; single oral 40 mg): -28.2 h | Time to alleviation of influenza symptoms, hazard ratio (Cox proportional hazard model relative to placebo) (influenza virus [3]; single oral 40 mg): 0.817 | Time to alleviation of influenza symptoms, median value (influenza virus [3]; single oral 40 mg): 49.5 h | Time until cough symptom is alleviated, median value (influenza virus [3]; single oral 40 mg): 24.6 h | Time until fatigue symptom is alleviated, median value (influenza virus [3]; single oral 40 mg): 31.1 h | Time until feverishness or chills symptom is alleviated, median value (influenza virus [3]; single oral 40 mg): 23 h | Time until headache symptom is alleviated, median value (influenza virus [3]; single oral 40 mg): 37.9 h | Time until muscular or joint pain symptom is alleviated, median value (influenza virus [3]; single oral 40 mg): 25.4 h | Time until nasal congestion symptom is alleviated, median value (influenza virus [3]; single oral 40 mg): 21.9 h | Time until sore throat symptom is alleviated, median value (influenza virus [3]; single oral 40 mg): 31.9 h | plasma concentration of Compound II-6 [4]: a determination limit or less

Reference: patent publication US10759814B2, “Pharmaceutical compositions containing substituted polycyclic pyridone derivatives and prodrug thereof” (priority 2016, dated 2020)
